These are literature values, as cited in the CATMoS acute toxicity set (Mansouri et al. 2021).

Where “and” joins values, the source holds several entries; their conditions need not be identical. Equal values may be shown once.

This data set in a line: rat acute oral toxicity. Particulars: in vivo.
Turning to `COc1c(Cl)c(Cl)c2[nH]c(C(F)(F)F)nc2c1Cl`, the 50% lethal dose (LD50) (as a rule, the dose expected to kill half of the subjects tested) is 33 mg/kg.

`O=CC=CC1CO1` (configuration not stated): the LD50 is 62 mg/kg. As to `CN(C)CC(=O)N/N=C/c1c(Cl)nc2sccn12`, the LD50 is 1500 mg/kg. In the case of `CC(C)=C1CCC(C)CC1=O` (configuration not stated), the LD50 was 470 mg/kg.

With `COc1cc([C@@H]2c3cc4c(cc3[C@H](O[C@@H]3O[C@@H]5COC(c6ccccc6)O[C@H]5[C@H](O)[C@H]3O)[C@H]3COC(=O)[C@H]23)OCO4)cc(OC)c1OC` (some centres not stated), the LD50 was 823 mg/kg. `O=C(OCC1CO1)c1ccccc1` (configuration not stated): the LD50 is 1410 mg/kg. For the compound `CCOC(=O)CC(=O)OC(Br)C(Cl)(Cl)Cl` (configuration not stated), the 50% lethal dose (LD50) is 2600 mg/kg. Take `CCc1ccc(C)nc1`: the LD50 is 368 mg/kg. With `CNCc1cccc2ccccc12`, the LD50 is 50 mg/kg.

For `CCCC(C)CCOC(=O)c1ccccc1C(=O)OCCC(C)CCC` (configuration not stated), the LD50 was 35500 mg/kg. In the case of `CC(C(=O)O)c1ccc2c(c1)OCc1ccccc1C2=O` (configuration not stated), the median lethal dose (LD50) was 34 mg/kg.

`CCCCCCCCCCCCC(Br)C(=O)O` (configuration not stated): the 50% lethal dose (LD50) is 800 mg/kg. In the case of `CCCSP(=S)(OCC)Oc1ccc(Cl)cc1Cl` (configuration not stated), the LD50 is 875 mg/kg. As for `C=C(CO)C(=O)OCC`, the LD50 is 620 mg/kg. On to `C=CCOc1ccccc1C(=O)N(CC)CC`, for which the LD50 was 325 mg/kg. Turning to `CCOP(=O)(OC=C(Cl)Cl)OCC`, the LD50 is 2.5 mg/kg.

`COP(=S)(OC)SCC(=O)CNC(=O)Oc1cccc(C(C)C)c1`: the LD50 is 432 mg/kg. With `COP(=S)(OC)SCn1nc(C)ccc1=O`, the LD50 is 8.75 mg/kg. Regarding `NC(=O)Cc1cccc2ccccc12`, the LD50 is 1690 mg/kg. As to `CC1OCC2C(CO1)C1(Cl)C(Cl)=C(Cl)C2(Cl)C1(Cl)Cl` (configuration not stated), the LD50 is 120 mg/kg.

As to `COCCCO`, the LD50 was 5710 mg/kg.

Regarding `O=C(O)COc1ccccc1`, the LD50 was 1500 mg/kg. For the compound `O=[N+]([O-])c1cc([N+](=O)[O-])c(Nc2cc(C(F)(F)F)ccc2Cl)c(C(F)(F)F)c1`, the LD50 was 94 mg/kg.

Consider `COC(=O)C(Cl)Cc1ccc(Cl)cc1` (configuration not stated), for which the LD50 is 1070 mg/kg. Take `CC(C)c1cccc(C(C)C)c1O`: the LD50 was 500 mg/kg.

With `CC(C)=CCCC(C)CC#N` (configuration not stated), the LD50 is 5300 mg/kg.

As for `O=S(=O)(O)c1cccc(Nc2nc(Nc3ccc(C=Cc4ccc(Nc5nc(Nc6cccc(S(=O)(=O)O)c6)nc(N(CCO)CCO)n5)cc4S(=O)(=O)O)c(S(=O)(=O)O)c3)nc(N(CCO)CCO)n2)c1`, the LD50 is 1960 mg/kg.

`O=C(O)Cc1ccccc1Oc1ccc(Cl)cc1Cl`: the LD50 is 2280 mg/kg. In the case of `N#Cc1cc2[nH]c(C(F)(F)F)nc2c(Cl)c1Cl`, the LD50 was 3960 mg/kg. Take `CC(C[N+](C)(C)C)OC(N)=O` (configuration not stated): the LD50 is 1500 mg/kg.

On to `N#CC(CCN1CCC(C(N)=O)(N2CCCCC2)CC1)(c1ccccc1)c1ccccc1`, for which the LD50 was 320 mg/kg. Turning to `N#CSc1ccc(C(=O)O)cc1`, the 50% lethal dose (LD50) is 83 mg/kg. For `CNC1=Nc2ccc(Cl)cc2C(c2ccccc2)=[N+]([O-])C1`, the median lethal dose (LD50) was 537 mg/kg.

With `O=C=Nc1ccc(Cc2ccc(N=C=O)cc2N=C=O)cc1`, the LD50 is 20000 mg/kg. For `CC(CCCCCCCCCCCCCCCCC(=O)O)N(C)Cc1cc(C(C)N(C)CCCCCCCCCCCCCCCCCC(=O)O)cc(C(C)N(C)CCCCCCCCCCCCCCCCCC(=O)O)c1O` (configuration not stated), the LD50 is 11800 mg/kg. For the compound `FC(F)=C(F)c1ccccc1`, the LD50 was 2500 mg/kg. As to `FC(F)(F)C(Cl)Br` (configuration not stated), the LD50 is 5680 mg/kg.

For `O=CC(Cl)CCl` (configuration not stated), the median lethal dose (LD50) is 160 mg/kg. For the compound `CC(C)OC(=O)C(C(=O)OC(C)C)=C1SCCS1`, the LD50 was 1190 mg/kg. Consider `COC12C(COC(N)=O)C3=C(C(=O)C(C)=C(N)C3=O)N1CC1C2N1C` (configuration not stated), for which the LD50 is 68 mg/kg. As for `CN(SSC(C)(C)C)C(=O)ON=C1SCCS1`, the LD50 was 5.6 mg/kg.

Consider `CCOc1ccccc1OCCN[C@H](C)Cc1ccc(OC)c(S(N)(=O)=O)c1`, for which the 50% lethal dose (LD50) was 650 mg/kg. For the compound `COP(=S)(OC)OC1C2(C)CCC(C2)C1(C)C` (configuration not stated), the LD50 is 250 mg/kg. Consider `CN(Sc1cc(Cl)ccc1Cl)C(=O)Oc1cccc2c1OC(C)(C)C2`, for which the LD50 was 25 mg/kg. For the compound `NCCNCc1ccccc1O`, the LD50 is 3700 mg/kg. Turning to `CCCCCCCCCCC(C)c1ccc(S(=O)(=O)O)cc1` (configuration not stated), the LD50 was 437 mg/kg. On to `CCCN(CCC)CCCCCCCCNC(=O)Oc1ccc2c(c1)[C@]1(C)CCN(C)[C@@H]1N2C`, for which the LD50 is 18.3 mg/kg. With `CN(C)C/C=C(/c1ccc(Br)cc1)c1cccnc1`, the LD50 is 900 mg/kg and 844 mg/kg. Take `CC(CC(=O)OC(C)(C)C)=NNc1ccc(N2CCOCC2)nn1`: the LD50 was 970 mg/kg.

`CCCC(C)C(=O)O` (configuration not stated): the LD50 was 2040 mg/kg. In the case of `CCC1(C)C(=O)N(CC2CO2)C(=O)N1CC1CO1` (configuration not stated), the LD50 was 250 mg/kg. On to `CNCCCC1c2ccccc2C=Cc2ccccc21`, for which the LD50 was 299 mg/kg and 240 mg/kg. As for `CC(C(c1ccc(Cl)cc1)c1ccc(Cl)cc1)[N+](=O)[O-]` (configuration not stated), the LD50 was 750 mg/kg.

As for `Oc1ccccc1-c1ccccc1`, the LD50 is 656 mg/kg and 1050 mg/kg. With `CN(C)N(C)N=O`, the LD50 is 95 mg/kg. On to `CCN(CC)CCNC(=O)c1ccc(NS(C)(=O)=O)cc1`, for which the 50% lethal dose (LD50) is 3200 mg/kg. Take `Cc1c(Cl)c(=O)oc2cc(OP(=O)(OCCCl)OCCCl)ccc12`: the LD50 was 900 mg/kg.
